Laboratory results reported in patent publication US8557831B2, “Compositions and methods for treatment and prevention of insulin resistance” (University of Florida Research Foundation, Inc., priority 2004, dated 2013).

Columns and labels:
Male Sprague-Dawley rats [1] = assay: Serum uric acid concentration in oxonic acid-induced hyperuricemia rat model; type: in vivo
Procedure: (§1) Male Sprague-Dawley rats were housed in standard conditions and fed normal diets. Hyperuricemia was induced with an uricase inhibitor, oxonic acid (OA; 750 mg/kg/day), by gavage, with control rats receiving vehicle. Allopurinol (AP) was used to block hyperuricemia by placing AP in the drinking water (150 mg/L). Rats were divided into four groups: (1) Control, (2) AP only, (3) OA only, and (4) OA+AP. Systolic blood pressure was measured using a tail-cuff sphygmomanometer. The amount of drinking water consumed and changes in body weight were noted. Rats were sacrificed at one and seven days. Serum was analyzed for uric acid concentration and nitrites/nitrates (NOx) by chemiluminescence method. (Prabhakar S S: Inhibition of mesangial iNOS by reduced extracellular pH is associated with uncoupling of NADPH oxidation. Kidney Int 61:2015-2024, 2002). Statistical analysis between subgroups was performed using ANOVA.

Male Sprague-Dawley rats [2] = assay: Serum nitrites/nitrates (NOx) by chemiluminescence method in hyperuricemic rats; type: in vivo, rat
Procedure: as §1

Male Sprague-Dawley rats [3] = assay: Systolic blood pressure by tail-cuff sphygmomanometer in hyperuricemic rats; type: in vivo, rat; conditions: 7 days, p=NS

Row | Structure (SMILES) | serum uric acid (Male Sprague-Dawley rats [1]; OA+AP group (AP 150 mg/L in drinking water), 7 days) [mg/dL] | serum uric acid (Male Sprague-Dawley rats [1]; OA+AP group (AP 150 mg/L in drinking water), day 1) [mg/dL] | change in serum UA concentration (Male Sprague-Dawley rats [1]; rats treated with AP alone) | serum nitrites and nitrates (NOx) (Male Sprague-Dawley rats [2]; OA+AP group, 1 day) [µmol/L] | serum nitrites and nitrates (NOx) (Male Sprague-Dawley rats [2]; OA+AP group, 7 days) [µmol/L] | change in serum NOx concentration (Male Sprague-Dawley rats [2]; rats treated with AP alone) | serum uric acid (Male Sprague-Dawley rats [1]; OA only group, 750 mg/kg/day by gavage, 1 day) [mg/dL] | serum uric acid (Male Sprague-Dawley rats [1]; OA only group, 750 mg/kg/day by gavage, 7 days) [mg/dL] | serum nitrites and nitrates (NOx) (Male Sprague-Dawley rats [2]; OA only group, 1 day) [µmol/L] | serum nitrites and nitrates (NOx) (Male Sprague-Dawley rats [2]; OA only group, 7 days) [µmol/L] | reduction of serum nitrites and nitrates (NOx) vs. Control (Male Sprague-Dawley rats [2]; hyperuricemic (OA) rats, at both 1 day and 7 days) | systolic blood pressure (Male Sprague-Dawley rats [3]) [mm Hg]
1 | Oc1ncnc2[nH]ncc12 [AP, Allopurinol] | 0.3 ± 0.2 | 1.52 ± 0.3 | did not show a significant change | 17.4 ± 0.8 | 25.0 ± 0.8 | did not show a significant change | – | – | – | – | – | –
2 | O=C(O)c1nc(=O)[nH]c(=O)[nH]1 [OA, oxonic acid] | – | – | – | – | – | – | 1.7 ± 0.7 | 1.8 ± 0.4 | 15.6 ± 0.4 | 14.6 ± 1.1 | 40-50% | 178±18
